Laboratory results published in article PMC6522510 (Nature Communications, 2019).
Like-named read-outs stand apart in the source and are kept apart here.

Key:
Set-up in all cases: species or system AML cell lines (8); Primary HTS, single concentration about 10 uM, Cell Titer Glo viability; log10 luminescence, per cent inhibition relative to cycloheximide control
Details in all cases: 72 h, relative to cycloheximide control, log10 luminescence, inhibitor
[1] = system: CHRF288-11
[2] = system: CMK
[3] = system: CMS
[4] = system: M07e
[5] = system: ML-2
[6] = system: MOLM-13
[7] = system: MV4-11
[8] = system: U937

SMILES	CHRF288-11 %inh ([1]; CHRF288-11 %inh, 10 µM)	CMK %inh ([2]; CMK %inh, 10 µM)	CMS %inh ([3]; CMS %inh, 10 µM)	M07e %inh ([4]; M07e %inh, 10 µM)	ML-2 %inh ([5]; ML-2 %inh, 10 µM)	MOLM-13 %inh ([6]; MOLM-13 %inh, 10 µM)	MV4-11 %inh ([7]; MV4-11 %inh, 10 µM)	U937 %inh ([8]; U937 %inh, 10 µM)	M07e %inh [4]	CHRF288-11 %inh [1]	CMK %inh [2]	CMS %inh [3]	ML-2 %inh [5]	MOLM-13 %inh [6]	MV4-11 %inh [7]	U937 %inh [8]
Nc1nccc(-c2c(-c3ccc(F)cc3)ncn2C2CCNCC2)n1 [SJ000573168-1, JB-19127-269D | LD19161-244A1]	34.51%	44.14%	7.951%	19.95%	22.46%	64.89%	77.89%	27.96%								
Nc1nccc(-c2c(-c3ccc(F)cc3)ncn2C2CCNCC2)n1 [SJ000573168-2, JB-19127-269D | LD19161-244A1]	101.4%	34.82%	15.45%		28.94%	78.79%	54.74%	15.47%	16.87%							
CC1=C(C(=O)Nc2ccc3[nH]nc(C)c3c2)C(c2ccc(C(F)(F)F)cc2)CC(=O)N1 (stereo not drawn) [SJ000573169-1, SD204573-190A1]									28.71%	46.87%	106.1%	35.88%	13.81%	15.8%	29.81%	19.8%
OCCCNc1nccc(-c2c(-c3ccc(F)cc3)nn3cc(C(F)(F)F)ccc23)n1 [SJ000573170-1, R5361/115/1]									-1.662%	127.7%	125%	105.9%	-1.781%	-2.069%	-0.4985%	1.034%
c1ccc(COc2ccc(Nc3ncnc4ccc(-c5ccco5)cc34)cc2)cc1 [SJ000573171-1, C3157/71/1]									-0.2498%	-4.196%	6.655%	1.088%	3.492%	27.04%	14.65%	10.84%
O=C1NC(=O)C(c2cccc(Cl)c2)=C1Nc1ccc(O)c(Cl)c1 [SJ000573172-1, RS98844-062A3]									6.042%	12.93%	35.38%	2.425%	2.635%	11.18%	8.124%	3.736%
c1ccc(-c2nc3n(c2-c2ccc4c(c2)OCO4)CCC3)nc1 [SJ000573174-1, JB42196-142B1]									7.377%	104.5%	48.28%	32.28%	5.523%	37.41%	4.462%	1.96%
CN(c1ccc(NC(=O)NCCN2CCOCC2)cc1)c1ccnc(Nc2ccc(CS(C)(=O)=O)cc2)n1 [SJ000573175-1, U17983/92/2]									2.849%	-0.5072%	-0.4287%	0.2292%	2.492%	82.21%	85.52%	4.061%
Oc1cccc(-c2nc(-c3ccccc3)[nH]c2-c2ccncc2)c1 [SJ000573176-1, KH49127-012A1]									1.15%	2.324%	4.668%	5.24%	2.359%	8.153%	3.826%	2.636%
CCN(CC)S(=O)(=O)c1ccc(OC)c(Nc2ncc(-c3ccccc3)o2)c1 [SJ000573177-1, U14961/35/1]									-3.903%	-8.829%	11.05%	2.203%	1.232%	13.29%	74.67%	3.148%
COc1cccc(-n2nc(C)c3c(N/N=C(\C)c4ccncc4)ncnc32)c1 [SJ000573178-1, U17747/163/1]									-1.478%	-4.056%	-0.9949%	0.07052%	-1.055%	-1.351%	-0.7035%	-2.387%
O=C1NC(=O)C(c2cccc(Cl)c2)=C1Nc1ccc(Cl)c(C(=O)O)c1 [SJ000573179-1, RS98844-062A1]									-0.5868%	-5.305%	-1.769%	-1.594%	0.225%	-0.7042%	-0.02775%	1.114%
Nc1nccc(-c2c(-c3ccc(F)cc3)ncn2CCCN2CCOCC2)n1 [SJ000573180-1, TG19207-124A1]									1.031%	-0.01823%	-0.5604%	-3.18%	2.942%	-0.9293%	0.7283%	3.947%
CC1=C(C(=O)Nc2cc(Cl)c3[nH]ncc3c2)C(c2ccc(C(F)(F)F)cc2)CC(=O)N1 (stereo not drawn) [SJ000573181-1, SD204573-088A4]									13.65%	20.3%	54.4%	8.733%	13.01%	4.804%	31.1%	8.409%
Nc1nccc(-c2c(-c3ccc(F)cc3)ncn2C2CCC(O)CC2)n1 (stereo not drawn) [SJ000573182-1, MS27011-022A2]									6.63%	23.09%	25.82%	9.299%	10.85%	26.67%	24.38%	5.213%
O=C1NC(=O)C(c2ccccc2Cl)=C1Nc1cccc(O)c1 [SJ000573183-1, BS98679-018A5]									51.61%	41.21%	56.79%	26.93%	39.83%	67.3%	22.8%	51.74%
COc1cccc(-c2c[nH]c3c(N/N=C/c4ccncc4)ncnc23)c1 [SJ000573184-1, U18675/6/1]									38.1%	52.41%	96.73%	90.74%	19.51%	59.82%	58.64%	14.24%
NC(=O)c1sc(-n2cnc3cc(C(F)(F)F)ccc32)cc1OCc1ccccc1Br [SJ000573185-1, U19121/197/1]									-2.426%	0.2512%	3.577%	-1.069%	-0.4297%	0.4978%	1.859%	-0.2413%
CS(=O)(=O)Nc1cccc(-c2ccc3c(NC(=O)C4CC4)n[nH]c3c2)c1 [SJ000573187-1, VB100064-178A3]									29.33%	25.27%	72.59%	0.4745%	56.77%	75.64%	73.57%	80.28%
[O-][S+]1CCN(Cc2ccc(-c3ccc4ncnc(Nc5ccc(OCc6ccccc6)c(F)c5)c4c3)o2)CC1 [SJ000573188-1, U14859/145/2]									-1.871%	1.525%	-1.588%	-1.026%	-0.4978%	2.781%	1.608%	-0.5877%
O=C(Nc1n[nH]c2cc(-c3cc(F)ccc3F)ccc12)C1CC1 [SJ000573189-1, VB100064-133A2]									13.96%	23.56%	46.32%	3.394%	4.109%	3.339%	1.045%	8.276%
